Each structure is given as a SMILES string. Structures can show the parent of a compound that is named as a salt.

Data set [1] deals with painful syndrome provoked in mice by phenylbenzoquinone. The data set is described as follows: animal or person. The settings on record: for Therapeutic Index LD 50/ED 50 / therapeutic index (in words): mice; for Therapeutic Index LD 50/ED 50: LD 50 (oral)/ED 50 (phenylbenzoquinone test); for therapeutic index (in words): LD 50/ED 50. Type of data set: in vivo. The procedure:
There is used the phenylbenzoquinone test according to a technique adapted from that of Siegmund (E), Proc. Soc. Exp. Biol. Med. 1957, 95, No. 4, 729-731.
It is attempted to antagonise, by previous administration (30 minutes before) of the test compounds, the painful syndrome provoked in mice (groups of 10 animals) by interperitoneal injection of phenylbenzoquinone and characterised by intermittent contractions of the abdomen, periodic torsions of the trunk and extension of the rear paws. The number of symtoms is counted for 20 minutes after administration of the phenylbenzoquinone to the control and treated groups and the percentage protection relative to the control group calculated.
For the most interesting compounds, studied at several doses chosen in geometric progression of ratio 2, the effective doses 50% (ED 50) which reduce by 50% the effects provoked by phenylbenzoquinone are determined. These ED 50s are sorted according to their limits of confidence calculated for a probability p=0.05 according to the method of Litchfield (J. T.) and Wilcoxon (F. A.), J. Pharmacol. Exp. Ther. 1949, 96, 99-113.
Calculation of the therapeutic index (LD 50/ED 50) enables appreciation of the interest of the compounds.

The nature of data set [2]: Acute toxicity in mice after oral administration. The settings on record: mouse, in vivo, suspended in 10% gum arabic, survivors checked at 15 days. As to the method:
The compounds have been administered at increasing doses (in geometric progression) to groups of five .female. SWISS, EOPS, NMRI/Han mice originating from the breeding of EVIC CEBA and of mean weight 25 g.
For oral administration, they are suspended in a 10% gum arabic solution.
The LD 50s are calculated by the method of Behrens (B) and Karber (C), (Arch. Exp. Path. Pharmakol. 1935, 177, 379-388).
The number of animals surviving in the different groups is finally checked 15 days after administration of the compounds.

Data set [3] can be described thus: Solubility in distilled water. In kind it is physicochemical.
The mark [4] stands for this setting: Mus musculus, read-out: Percentage Protection.

Take `C[C@H](Nc1cccc(C(=O)c2ccccc2)c1)C(=O)O` [LJ 874, N-(3-Benzoylphenyl)-alanine]: the median effective dose (ED50) – broadly, the midpoint of the dose-response relation – in data set [1] (Mus musculus) is 35 mg/kg. In data set [1] (setting [4]), the inhibition in vivo at 7.5 mg/kg was 3%, the inhibition in vivo at 15 mg/kg stood at 20%, the inhibition in vivo at 30 mg/kg came out at 48% and the inhibition in vivo at 60 mg/kg amounted to 61%. In data set [1] (setting [4]), the inhibition in vivo at 120 mg/kg worked out at 92%. Moreover, in data set [1], the “Therapeutic Index LD 50/ED 50” value turned out to be 71 and the “therapeutic index (in words)” value is “very favourable therapeutic index”. In data set [2], the LD50 – broadly, the dose expected to kill half of the subjects tested – at 360 h came to 2500 mg/kg.

In turn, `Cc1c(NCC(=O)O)cccc1C(=O)c1ccc(Cl)cc1` [LJ 846, N-[3-(4-Chlorobenzoyl)-2-methyl-phenyl]glycine] displayed an ED50 in data set [1] (Mus musculus) of 18 mg/kg. Moreover, in data set [1] (setting [4]), the inhibition in vivo at 5 mg/kg was 6%, the inhibition in vivo at 10 mg/kg came to 40%, the inhibition in vivo at 20 mg/kg is 48% and the inhibition in vivo at 40 mg/kg came to 75%. The inhibition in vivo at 80 mg/kg in data set [1] (setting [4]) was 90%. Moreover, in data set [1], the “Therapeutic Index LD 50/ED 50” value turned out to be 89 and the “therapeutic index (in words)” value was “very favourable therapeutic index”. The same compound yielded an LD50 at 360 h in data set [2] of 1600 mg/kg.

The compound `CC(Nc1ccc(Cl)c(C(=O)c2ccccc2)c1)C(=O)O` (centres unmarked) [LJ 868] gave an ED50 in data set [1] (Mus musculus) greater than 180 mg/kg. Also, the inhibition in vivo at 180 mg/kg in data set [1] (setting [4]) turned out to be 32%. Further, the “Therapeutic Index LD 50/ED 50” value in data set [1] is listed as less than 10. In addition, the LD50 at 360 h in data set [2] is 1800 mg/kg.

Compound `Cc1c(NCC(=O)O)cccc1C(=O)c1ccccc1` [LJ 861] had an ED50 in data set [1] (Mus musculus) of 65 mg/kg. Besides, in data set [1] (setting [4]), the inhibition in vivo at 20 mg/kg worked out at 24%, the inhibition in vivo at 40 mg/kg was determined as 36%, the inhibition in vivo at 80 mg/kg is 52% and the inhibition in vivo at 160 mg/kg worked out at 90%. Further, the inhibition in vivo at 320 mg/kg in data set [1] (setting [4]) is 96%. Besides, the “Therapeutic Index LD 50/ED 50” value in data set [1] was determined as 20. In addition, in data set [2], the LD50 at 360 h amounted to 1300 mg/kg.

In data set [1] (Mus musculus), `CC(Nc1cccc(C(=O)c2ccccc2)c1)C(=O)O` (centres unmarked) [LJ 843, The lysine salt of N-(3-benzoylphenyl)alanine monohydrate] had an ED50 of 25 mg/kg. In addition, in data set [1] (setting [4]), the inhibition in vivo at 11.75 mg/kg worked out at 30%, the inhibition in vivo at 23.5 mg/kg turned out to be 38%, the inhibition in vivo at 47 mg/kg is 66% and the inhibition in vivo at 93.75 mg/kg is 84%. Besides, the inhibition in vivo at 187.5 mg/kg in data set [1] (setting [4]) turned out to be 91%. In addition, in data set [1], the “Therapeutic Index LD 50/ED 50” value is reported as 150 and the “therapeutic index (in words)” value is “very favourable therapeutic index”. Further, the LD50 at 360 h in data set [2] stood at 3750 mg/kg. Besides, the “solubility in distilled water” value in data set [3] is on record as “very soluble in distilled water”.

In data set [1] (Mus musculus), `Cc1ccc(C(=O)c2cccc(NC(C)C(=O)O)c2)cc1` (centres unmarked) [LJ 867] returned an ED50 of 32 mg/kg. Also, in data set [1] (setting [4]), the inhibition in vivo at 8.2 mg/kg is 6%, the inhibition in vivo at 16.4 mg/kg worked out at 32%, the inhibition in vivo at 32.75 mg/kg came to 52% and the inhibition in vivo at 65.5 mg/kg was determined as 70%. Moreover, in data set [1] (setting [4]), the inhibition in vivo at 131 mg/kg turned out to be 92% and the inhibition in vivo at 262 mg/kg was found to be 97%. Moreover, in data set [1], the “Therapeutic Index LD 50/ED 50” value was 82 and the “therapeutic index (in words)” value is given as “very favourable therapeutic index”. The LD50 at 360 h in data set [2] was found to be 2620 mg/kg.

Regarding `Cc1ccc(C(=O)c2ccccc2)cc1NCC(=O)O` [LJ 871], the ED50 in data set [1] (Mus musculus) was 120 mg/kg. In addition, in data set [1] (setting [4]), the inhibition in vivo at 20 mg/kg amounted to 3%, the inhibition in vivo at 40 mg/kg was determined as 22%, the inhibition in vivo at 80 mg/kg came out at 34% and the inhibition in vivo at 160 mg/kg amounted to 59%. The inhibition in vivo at 320 mg/kg in data set [1] (setting [4]) is 60%.

Compound `CN(CC(=O)O)c1cccc(C(=O)c2ccccc2)c1` [LJ 862, N-(3-Benzoylphenyl)-N-methyl-glycine] displayed a 50% effective dose (ED50) in data set [1] (Mus musculus) of 85 mg/kg. Moreover, in data set [1] (setting [4]), the inhibition in vivo at 20 mg/kg was determined as 6%, the inhibition in vivo at 40 mg/kg turned out to be 24%, the inhibition in vivo at 80 mg/kg worked out at 49% and the inhibition in vivo at 160 mg/kg turned out to be 78%. Also, the inhibition in vivo at 320 mg/kg in data set [1] (setting [4]) worked out at 89%.

As for `O=C(O)CNc1cccc(C(=O)c2ccccc2)c1` [LJ 850], the inhibition in vivo at 33.75 mg/kg in data set [1] (setting [4]) was 28%. The LD50 at 360 h in data set [2] turned out to be 675 mg/kg.

In turn, `CC(=O)Oc1ccccc1C(=O)O` [Aspirin, reference compound] yielded an ED50 in data set [1] (Mus musculus) of 60 mg/kg. Further, in data set [1] (setting [4]), the inhibition in vivo at 9.4 mg/kg is 4%, the inhibition in vivo at 18.75 mg/kg came out at 20%, the inhibition in vivo at 37.5 mg/kg is 31% and the inhibition in vivo at 75 mg/kg was found to be 56%. Also, in data set [1] (setting [4]), the inhibition in vivo at 150 mg/kg worked out at 82% and the inhibition in vivo at 300 mg/kg turned out to be 95%. For the same compound, in data set [1], the “Therapeutic Index LD 50/ED 50” value is 25. Also, in data set [2], the LD50 at 360 h was found to be 1500 mg/kg.

`Cc1ccc(C(=O)c2ccccc2)cc1NC(C)C(=O)O` (centres unmarked) [LJ 869] registered an ED50 in data set [1] (Mus musculus) of 28 mg/kg. In data set [1] (setting [4]), the inhibition in vivo at 8.1 mg/kg stood at 12%, the inhibition in vivo at 16.25 mg/kg was found to be 36%, the inhibition in vivo at 32.5 mg/kg was determined as 51% and the inhibition in vivo at 65 mg/kg was 82%. Moreover, the inhibition in vivo at 130 mg/kg in data set [1] (setting [4]) was 96%. For the same compound, in data set [1], the “Therapeutic Index LD 50/ED 50” value worked out at 46. The compound further came in with an LD50 at 360 h in data set [2] of 1300 mg/kg.

In data set [1] (Mus musculus), `CC(Nc1ccccc1C(=O)c1ccccc1)C(=O)O` (centres unmarked) [LJ 855] gave an ED50 of 16 mg/kg. In addition, in data set [1] (setting [4]), the inhibition in vivo at 3.1 mg/kg was 10%, the inhibition in vivo at 6.25 mg/kg was 14%, the inhibition in vivo at 12.5 mg/kg turned out to be 37% and the inhibition in vivo at 25 mg/kg was 73%. In addition, the inhibition in vivo at 50 mg/kg in data set [1] (setting [4]) was found to be 92%. Further, the “Therapeutic Index LD 50/ED 50” value in data set [1] is reported as 62. For the same compound, the LD50 at 360 h in data set [2] came out at 1000 mg/kg.

`C[C@@H](C(=O)O)N(C(=O)c1ccc(Cl)cc1)c1cccc(C(=O)c2ccccc2)c1` [LJ 863, N-(3-Benzoylphenyl)-N-(4-chlorobenzoyl)-alanine]: the inhibition in vivo at 320 mg/kg in data set [1] (setting [4]) came out at 45%.

`CC(Nc1cccc(C(=O)c2cccs2)c1)C(=O)O` (centres unmarked) [LJ 859]: the inhibition in vivo at 125 mg/kg in data set [1] (setting [4]) was determined as 77%. For the same compound, the median lethal dose (LD50) at 360 h in data set [2] turned out to be 2500 mg/kg.

Regarding `CC(Nc1cccc(C(=O)c2ccc(Cl)cc2)c1)C(=O)O` (centres unmarked) [LJ 845], the inhibition in vivo at 87.5 mg/kg in data set [1] (setting [4]) was found to be 75%. The median lethal dose (LD50) at 360 h in data set [2] amounted to 1750 mg/kg.

Consider `Cc1c(NC(C)C(=O)O)cccc1C(=O)c1ccc(Cl)cc1` (centres unmarked) [LJ 857], for which, in data set [1] (setting [4]), the inhibition in vivo at 62.5 mg/kg was 64%. This compound also gave a median lethal dose (LD50) at 360 h in data set [2] of 1250 mg/kg.

As to `CC(Nc1ccc(C(=O)c2ccccc2)cc1)C(=O)O` (centres unmarked) [LJ 854], the ED50 in data set [1] (Mus musculus) came out at 32 mg/kg. Moreover, in data set [1] (setting [4]), the inhibition in vivo at 5.8 mg/kg was 6%, the inhibition in vivo at 11.75 mg/kg is 11%, the inhibition in vivo at 23.5 mg/kg came out at 25% and the inhibition in vivo at 47 mg/kg was 84%. Besides, the inhibition in vivo at 93.75 mg/kg in data set [1] (setting [4]) turned out to be 90%. Also, in data set [1], the “Therapeutic Index LD 50/ED 50” value was found to be 58. The LD50 at 360 h in data set [2] was found to be 1880 mg/kg.

`CC(Nc1ccc(C(=O)c2cccs2)cc1)C(=O)O` (centres unmarked) [LJ 858]: in data set [1] (setting [4]), the inhibition in vivo at 93.75 mg/kg worked out at 78%. In data set [2], the LD50 at 360 h turned out to be 1880 mg/kg.

For `O=C(c1ccccc1)c1cccc(NC(C(=O)O)c2ccccc2)c1` (centres unmarked) [LJ 864], in data set [1] (setting [4]), the inhibition in vivo at 40 mg/kg was 7%, the inhibition in vivo at 80 mg/kg was 22%, the inhibition in vivo at 160 mg/kg was 31% and the inhibition in vivo at 320 mg/kg stood at 59%.
